This note sets out measurements from patent US12577262B2, “Functionalized gold carbene napthaquinone complexes for use in the treatment of cancer” (Board of Regents, The University of Texas System, priority 2019, dated 2026).

One test relates to A549 lung cancer cells. Description: Cell proliferation, 72 h IC50 (Table 3). The test is classed as cell-based, human. Conditions: read-out: 72 h IC50, 3-5 separate experiments.
In another test the test system is A2780 Ovarian. Description: Cell proliferation, 72 h IC50 (Table 3). The test is classed as cell-based, human. Conditions: read-out: 72 h IC50, 3-5 separate experiments.
The next test has as its system 2780CP Ovarian. In words: Cell proliferation, 72 h IC50 (Table 3). Format: cell-based, human. Conditions: read-out: 72 h IC50, 3-5 separate experiments.
The test system of another test is HCT116 Colon. In words: Cell proliferation, 72 h IC50 (Table 3). Format: cell-based, human. Conditions: read-out: 72 h IC50, 3-5 separate experiments.
The test system of the next test is Panc-02 cells. In words: CRT translocation to the cell membrane, flow cytometry (percent CRT+ cells). The test is classed as cell-based, murine. Background: In flow cytometry, cells or beads pass a laser one at a time.
For another test, the system named is CT26 Colon. Conditions: read-out: 72 h IC50, 3-5 separate experiments.
For test [1], the system named is CT26 mouse colorectal cancer cells. Conditions: immunized with CT26 cells treated with oxaliplatin at 150 μM; challenged after 7 days.
Test [2] has as its system A549 human lung cancer cell line. Description: Cell proliferation MTT assay, Example 4 (Table 8). The test is classed as cell-based. Conditions: 72 h treatment, max DMSO 0.1%. Background: Tetrazolium dyes change colour on reduction, which living cells bring about.
The test system of a further test is L929 fibroblasts. Description: Cell proliferation, 72 h IC50 (Table 3). Format: cell-based, human. The source says: The initial rationale for preparing complexes 1-3 (shown below) involved a systems approach to circumventing the antioxidant network that helps give solid tumors their resiliency.
Test [3] has as its system A549 human lung cancer cell line. In words: Cell proliferation MTT assay, Example 3 (Table 5). Format: cell-based. Conditions: 72 h incubation. On the procedure:
According to previous literature reports, BSA binding can reduce the cytotoxicity of Au(I) bis-NHC complexes (Zou et al., 2014). […] The non-conjugated alcohol 1 and Auranofin were used as benchmark comparisons. Incubation was carried out for 72 h in all cases. […] A549 cells were harvested and seeded into 96-well culture plates (Costar 07-200-90) in 100 μL of culture medium. The cells were allowed to incubate overnight at 37° C. in the presence of 5% CO2. A549 cells were seeded at a density of 1500 cells/well. […] To each well of a 96 well plate was added 100 μL of the appropriate solution. […] After removal of the medium, the resulting formazan was dissolved in […] DMSO and the respective absorbances were measured at 560-650 nm using a microplate reader (Molecular Devices, Sunnyvale, CA). Absorbance values were corrected for background and then normalized to wells containing untreated cells to allow for plate-to-plate comparisons. The resulting dose response curves were subjected to linear regression analysis (Origin by OriginLab, Inc.) for determination of IC50 values. […] Maximum concentration of DMSO used is 0.1%. This concentration of DMSO was determined to be non-toxic in separate control experiments. […] The stock solution was further diluted 10-fold in RPMI media such that the maximum drug concentration used was 10 μM for the dose dependent MTT assay.

Each structure is given as a SMILES string. Structures can show the parent of a compound that is named as a salt.

Description for Panc-02 cells: Calreticulin (CRT) translocation from the ER to the cell membrane is a critical mechanistic step in ICD induction. To correlate the findings of ER and mitochondrial stress to ICD induction, murine cancer cell lines (Panc-02 pancreas and CT26 colon) were treated with 3 and assessed for cell membrane CRT translocation (FIG. 4).

Turning to `O=C1[O][Pt]2([NH][C@@H]3CCCC[C@H]3[NH]2)[O]C1=O` [Oxaliplatin], the half-inhibitory concentration (IC50) was 970 nM in the test on A549 lung cancer cells; 150 nM with A2780 Ovarian; 300 nM with 2780CP Ovarian; 500 nM in the test on HCT116 Colon; 2000 nM with CT26 Colon. In addition, the “concentration needed to achieve the same CRT+ signal” value in the test with Panc-02 cells (same CRT+ signal as 3 at 1 μM) amounted to 300 µM. Also, in test [1], the “mice remaining tumor-free at the end of the study” value came out at 80%.

In test [2] (Homo sapiens), `COc1cccc2c1C(=O)c1c(O)c3c(c(O)c1C2=O)C[C@@](O)(C(=O)CO)C[C@@H]3O[C@H]1C[C@H](N)[C@H](O)[C@H](C)O1` [Doxorubicin•HCl, Doxorubicin] registered a 50% inhibitory concentration (IC50) of 131 nM.

Turning to `CC(=O)OC[C@H]1O[C@@H]([S-])[C@H](OC(C)=O)[C@@H](OC(C)=O)[C@@H]1OC(C)=O.CCP(CC)CC.[Au+]` [Auranofin], the IC50 in the test with A549 lung cancer cells was found to be 1670 nM; with HCT116 Colon, 1300 nM; in the test on L929 fibroblasts (read-out: 72 h IC50, L929 Fibroblasts, 72 h, 3-5 separate experiments), 4200 nM; in test [3], 2240 nM; in test [2] it was 2180 nM. The same compound registered a cancer selectivity with L929 fibroblasts (L929 fibroblasts in comparison to A549 lung cancer cells) of 2.5 fold. For the same compound, the “CRT translocation to the cell membrane” value with Panc-02 cells (flow cytometry, 3 at 1 μM, auranofin under the same conditions) was “ineffective”.

For the compound `N.N.[Cl][Pt][Cl]` [Cisplatin], the IC50 came out at 1030 nM in the test with A549 lung cancer cells, 330 nM in the test with A2780 Ovarian and 7100 nM in the test on 2780CP Ovarian.

A word on the IC50: it is the midpoint of a concentration-inhibition curve.
